Test results reported in patent publication US9980979B2, “Compounds and methods for enhancing erythropoiesis” (NATIONAL YANG-MING UNIVERSITY, priority 2008, dated 2018).

Key:
erythropoietin (Epo) [1] = assay: Epo expression in kidney slices (RT-PCR); assay type: cell-based, mouse; settings: 0.6-100 μg/ml, 16 hr, versus 0 μg/ml, FIG. 3
Method: C57BL/6JNarl mice, 8-10 weeks of age, were purchased from the National Laboratory Animal Center (NLAC, Taiwan). The kidney slices of mice were prepared as previously described with modifications (Parrish et al., 1995, Obatomi et al., 1998 and De Kanter et al., 1999). Briefly, mice were sacrificed by cervical dislocation and the kidneys were excised and immediately kept in gassed (95% O2 and 5% CO2) ice-cold sterile Krebs-HEPES buffer (pH 7.4) containing 20 mM HEPES (USB), 128 mM sodium chloride (Sigma-Aldrich), 2.5 mM potassium chloride (Sigma-Aldrich), 2.7 mM calcium chloride (Sigma-Aldrich), 1 mM magnesium chloride (Sigma-Aldrich) and 16 mM D-glucose (Sigma-Aldrich). […]
Kidney slices were preincubated in a 24-well plate (Falcon) containing 1.0 ml/well of gassed (95% O2, 5% CO2) fresh media (DMEM/F12 (Gibco/Invitrogen) containing 15 mM HEPES (USB), 20 mM sodium bicarbonate (Sigma-Aldrich)) and 5% (v/v) FBS (Gibco) for 90˜120 min at 37° C. in a 95% O2: 5% CO2 atmosphere chamber. […] The reverse-transcribed cDNA samples were analyzed by polymerase chain reaction (PCR) using ABI GeneAmp™ system 2700 (Applied Biosystems) with primers targeting toward mouse β-actin (SEQ ID NOs: 1 and 2) and erythropoietin (Epo) (SEQ ID NOs: 3 and 4) (Table 1). Results were compared with control group (0 μg/ml) and expressed as relative index.

erythropoietin (Epo) [2] = assay: Epo expression in isolated hepatocytes (RT-PCR); assay type: cell-based, mouse; settings: 0.1-12.5 μg/ml, 24 hours; FIG. 4
Method: C57BL/6JNarl mice, 8-10 weeks of age, were purchased from the National Laboratory Animal Center (NLAC, Taiwan). The hepatocytes were isolated as previously described with modifications (Kreamer et al., 1986). Briefly, mice were anaesthetized with Avertin (2% (w/v) 2,2,2-tribromoethanol, i.p., 300 mg/Kg body weight) and the liver was perfused in situ through portal vein with a calcium-free Hank's balanced salt solution (HBSS) containing 0.5 mM Ethylene glycol-bis(2-aminoethylether)-N,N,N′,N′-tetraacetic acid (EGTA; Sigma-Aldrich). […] After 10 min of perfusion, HBSS containing 0.05% (w/v) collagenase (Type II; Worthington Biochemical Corporation) and 1 mM calcium chloride (Sigma-Aldrich) was introduced into the perfusion apparatus. The perfusion was continued for another 10 min at the same flow rate. The partially digested liver was removed, placed in a 60-mm culture dish (BD Falcon) containing HBSS, and gently minced to open the liver capsula. […]
The isolated hepatocytes were plated in 6-well plates (Costar) at approximately 6×10^5 cells/well in DMEM medium (Gibco/Invitrogen) containing 10% FBS (Gibco) in a humidified 37° C. incubator containing 5% CO2-95% air. […] The RNA of hepatocyte was extracted by RNA-Bee™ RNA isolation solvent (Tel-test) for reverse transcription, and the transcripts analyzed by PCR as previously described.

[3] = test system: hepatocyte growth factor (HGF); assay: liver expression of HGF in cisplatin-induced acute renal failure animal model (PCR); assay type: in vivo, mouse; settings: 10~90 mg/Kg/day, day 28; FIG. 10
Method: The effects of Compound A treatment on cisplatin-induced acute renal failure animal model were investigated. C57BL/6JNarl mice (8-week-old) were purchased from the National Laboratory Animal Center (NLAC, Taiwan). Cisplatin (Sigma-Aldrich) was dissolved in normal saline (0.9% (w/v) sodium chloride, Sigma-Aldrich) at a concentration of 1 mg/ml, and injected into mice intraperitoneally (i.p.) according to the following schedule: day 1, 7 mg/kg; day 5, 6 mg/kg; and day 9, 6 mg/kg. For cisplatin-untreated normal mice group, normal saline injections of corresponding volumes were given i.p. in parallel. At day 13, serum samples were collected and blood urea nitrogen (BUN) contents were assayed. […]
At the end of the experiments described in EXAMPLE 6 (i.e., day 28), mice were sacrificed, kidney and liver tissues were removed, and bone marrow cells were isolated. […] The reverse-transcribed cDNA samples were analyzed by PCR using ABI GeneAmp™ system 2700 (Applied Biosystems) and the SYBR Green Master Mix kit (Applied Biosystems) using primers targeting toward mouse glyceraldehyde 3-phosphate dehydrogenase (GAPDH) (SEQ ID NOs: 5 and 6), erythropoietin (Epo) (SEQ ID NOs: 3 and 4) and hepatocyte growth factor (HGF) (SEQ ID NOs: 7 and 8) (Table 1). Results were expressed as relative index±S.E. (n=5˜6). […]

OC[C@H]1O[C@@H](Oc2c(O)cc(O)cc2/C=C/c2ccc(O)cc2)[C@H](O)[C@@H](O)[C@@H]1O [Compound A, 2,3,5,4′-tetrahydroxystilbene 2-O-β-D-glucopyranoside] was tested, and the “expression of Epo in kidney tissue (relative index)” value (erythropoietin (Epo) [1]) was “increased the expression of Epo in kidney tissue”, the “expression of Epo in hepatocytes” value (erythropoietin (Epo) [2]) was “enhanced the expression of Epo in hepatocytes” and the “expression of HGF in liver tissue (relative index)” value [3] was “enhanced the expression of HGF in liver tissue”.
